Data taken from patent publication US20240361338A1, “DIAGNOSIS AND TREATMENT OF ECTOPIC ENDOMETRIOSIS” (FERRING B.V., priority 2021, published 2024).

Experiments:
[1] = system: ectopic EMSCs; assay: BrdU cell proliferation assay on E-MSCs; format: cell-based, human; details: different concentrations, after 24 hours
Method: FIG. 3: Quinagolide effect on EMSCs apoptosis and proliferation. A: Quinagolide concentration-response curve on ectopic EMSCs in both apoptosis (N=1) and proliferation (N=2) assays. B: Effect of two selected quinagolide doses (10^−5 and 10^−7M) on HUVECs (N=1) and ectopic E-MSCs (N=3) apoptosis and proliferation assays (N=2). Data are represented as mean±SD of the indicated number of experiments and normalized to untreated cells (Control). Cells were plated in growth medium at a concentration of 2,500 HUVECs/well and 3,000 E-MSCs/well in a 96-multiwell plate. The day after quinagolide was added to the growth medium at different concentrations after 24 hours. Deoxyribonucleic acid synthesis was detected as incorporation of 5-bromo-2-deoxyuridine (BrdU) into the cellular DNA after 48 hours from cell plaiting, using an enzyme-linked assay kit (Chemicon). Untreated cells were used as control. Data are expressed as the mean±standard deviation (SD) of the media of absorbance of at least three different experiments and normalized to control.

[2] = system: ectopic E-MSCs; assay: Matrigel transwell invasion assay, ectopic E-MSCs; format: cell-based, human
Method: FIG. 4: Quinagolide effect on EMSCs invasion. A and B: Representative micrographs (A) and quantification (B) of quinagolide effect (100 nM) on eutopic and ectopic (both ovarian and peritoneal) EMSCs invasion (original magnification: ×100). C: Concentration response effect of quinagolide treated ectopic EMSCs invasion. D and E: Quantification (D) and representative micrographs (E) (original magnification: ×100) of invasion assays performed on ectopic EMSCs (both ovarian and peritoneal), treated with 100 nM quinagolide (Q100 nM), 5 μM spiperone(S) or a combination of quinagolide and spiperone (S+Q100 nM). All invasion data are represented as mean±SD of at least three independent experiments, performed on different EMSC lines, and normalized to untreated cells (CTL). One-way ANova was performed: *=p<0.05 and **=p<0.001 vs CTL. Quinagolide powder (provided by Ferring Pharmaceuticals) was stored at 4° C. and resuspended in dimethylsulphoxide (DMSO) to a stock solution of 1 mM immediately before use. Spiperone powder (Sigma-Aldrich) was resuspended in water to a stock concentration of 1 mM and stored at −20° C. Cabergoline powder (Sigma-Aldrich) was dissolved in DMSO to a stock concentration of 25 mM and stored at −20° C. […] Quinagolide, cabergoline, sorafenib and cabozantinib and were administered for 24 hours during co-culture experiments, while spiperone was added to culture medium 1 h before quinagolide treatment. […] E-MSCs were seeded in triplicate in Matrigel-precoated (100 μg Matrigel/transwell) 8-um pore transwells at a concentration of 50,000 cells per well in 200 μl of RPMI 2% FCS with/without quinagolide at the indicated concentration. To test the D2 antagonist effect, E-MSCs were pre-treated with spiperone (5 μM) for 1 h at 37° C. before cell detachment. After 48 hours, invaded E-MSCs on the bottom side of the transwell were fixed with methanol and stained with crystal violet. At least five pictures per transwell were acquired (original magnification: 100×), and the percentage of transwell area covered by invaded EMSCs was quantitatively measured by ImageJ software.

[3] = system: eutopic E-MSCs; assay: Endothelial differentiation (CD31) of eutopic E-MSCs in co-culture with HUVECs; format: cell-based, human; details: 100 nM, 24-h treatment, 48 h co-culture with HUVECs
[4] = long-term prolactinoma treatment (Schultz et al., 2000; Barlier et al., 2006); cited from earlier work

## CCCN1C[C@@H](NS(=O)(=O)N(CC)CC)C[C@@H]2Cc3c(O)cccc3C[C@H]21 [quinagolide, N,N-diethyl-N′-[(3S,4aS,10aR)-6-hydroxy-1-propyl-1,2,3,4,4a,5,10,10a-octahydrobenzo[g]quinolin-3-yl]sulfamide]
[1]
  proliferation of E-MSCs (BrdU): did not affect proliferation
[2]; 100 nM, 48 h, Matrigel, vs untreated
  invasion of ectopic E-MSC lines: significantly reduced
[2]; ectopic EMSCs, 48 h (FIG. 4C)
  concentration response of invasion reduction: dose-dependent
[3]
  percentage of CD31 expressing E-MSCs after co-culture: no significant alteration
[4]
  safety and tolerability: safe and well-tolerated
